Where “and” joins values, the source holds several entries; their conditions need not be identical. Equal entries are not always repeated.
Experiments:
PDE10A [1] = target: PDE10A (Rattus norvegicus, UniProt Q9QYJ6)
PDE10A [2] = conditions: NHP brain
[3] = In vivo biodistribution and regional brain uptake in rats; conditions: male SD rats, i.v.
[4] = rats pretreated with MP-10 2.0 mg/kg 5 min prior to tracer, 30 min p.i.

Sequence of PDE10A (Rattus norvegicus, UniProt Q9QYJ6) (Q9QYJ6 whole entry): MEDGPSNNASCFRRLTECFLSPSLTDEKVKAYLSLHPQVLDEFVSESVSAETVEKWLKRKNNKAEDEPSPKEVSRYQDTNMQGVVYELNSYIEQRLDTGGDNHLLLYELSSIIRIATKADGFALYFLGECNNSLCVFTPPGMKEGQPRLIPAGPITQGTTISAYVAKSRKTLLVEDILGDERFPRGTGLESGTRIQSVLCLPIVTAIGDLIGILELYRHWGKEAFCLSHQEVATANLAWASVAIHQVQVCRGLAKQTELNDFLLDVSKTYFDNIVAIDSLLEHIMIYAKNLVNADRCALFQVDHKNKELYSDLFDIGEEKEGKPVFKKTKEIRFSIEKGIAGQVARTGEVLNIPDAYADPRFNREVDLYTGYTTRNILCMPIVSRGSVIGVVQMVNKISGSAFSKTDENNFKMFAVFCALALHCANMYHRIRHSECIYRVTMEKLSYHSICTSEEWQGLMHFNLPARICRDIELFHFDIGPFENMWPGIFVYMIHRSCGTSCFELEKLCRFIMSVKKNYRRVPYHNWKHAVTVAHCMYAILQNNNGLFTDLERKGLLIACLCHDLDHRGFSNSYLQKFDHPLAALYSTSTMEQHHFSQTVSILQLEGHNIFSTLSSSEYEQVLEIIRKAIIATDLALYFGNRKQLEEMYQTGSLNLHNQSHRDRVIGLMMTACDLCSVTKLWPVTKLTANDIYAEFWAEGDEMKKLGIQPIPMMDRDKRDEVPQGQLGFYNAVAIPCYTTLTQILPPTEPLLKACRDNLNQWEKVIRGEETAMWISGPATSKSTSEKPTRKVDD

Cn1cc(-c2ccncc2)c(-c2ccc(OCc3nc4ccccc4cc3O[11CH3])cc2)n1 [[^11C]1, 3-(methoxy-^11C)-2-((4-(1-methyl-4-(pyridin-4-yl)-1H-pyrazol-3-yl)phenoxy)methyl)quinoline]
Distribution, blood, MP-10 block (PDE10A [1]; [4]): 0.407 ± 0.026 %ID/gram | Distribution, cerebellum, MP-10 block (PDE10A [1]; [4]): 0.119 ± 0.006 %ID/gram | Distribution, fat, MP-10 block (PDE10A [1]; [4]): 1.353 ± 0.202 %ID/gram | Distribution, heart, MP-10 block (PDE10A [1]; [4]): 0.340 ± 0.036 %ID/gram | Distribution, kidney, MP-10 block (PDE10A [1]; [4]): 1.523 ± 0.162 %ID/gram | Distribution, liver, MP-10 block (PDE10A [1]; [4]): 5.781 ± 0.696 %ID/gram | Distribution, lung, MP-10 block (PDE10A [1]; [4]): 0.404 ± 0.024 %ID/gram | Distribution, muscle, MP-10 block (PDE10A [1]; [4]): 0.257 ± 0.026 %ID/gram | Distribution, striatum, MP-10 block (PDE10A [1]; [4]): 0.294 ± 0.013 %ID/gram | Distribution, total brain, MP-10 block (PDE10A [1]; [4]): 0.128 ± 0.003 %ID/gram | decrease of striatum: cerebellum ratio by MP-10 pretreatment (PDE10A [1]; rats, MP-10 2 mg/kg 5 min prior to tracer, 30 min p.i.): 50% | striatal binding after blocking dose of MP-10 (PDE10A [1]; rats, MP-10 2 mg/kg i.v. 5 min prior to tracer, p < 0.05): significant reduction | blood–brain-barrier penetration (PDE10A [2]): readily penetrate the blood–brain-barrier | Biodistribution, blood ([3]; 5 min p.i.): 0.679 ± 0.116 %ID/gram | Biodistribution, cerebellum ([3]; 5 min p.i.): 0.229 ± 0.039 %ID/gram | Biodistribution, fat ([3]; 5 min p.i.): 0.935 ± 0.462 %ID/gram | Biodistribution, heart ([3]; 5 min p.i.): 0.733 ± 0.039 %ID/gram | Biodistribution, kidney ([3]; 5 min p.i.): 4.354 ± 0.473 %ID/gram | Biodistribution, liver ([3]; 5 min p.i.): 11.005 ± 0.758 %ID/gram | Biodistribution, lung ([3]; 5 min p.i.): 1.602 ± 0.509 %ID/gram | Biodistribution, muscle ([3]; 5 min p.i.): 0.412 ± 0.064 %ID/gram | Biodistribution, striatum ([3]; 5 min p.i.): 0.488 ± 0.101 ^a %ID/gram | Biodistribution, total brain ([3]; 5 min p.i.): 0.231 ± 0.038 %ID/gram | Biodistribution, blood ([3]; 30 min p.i. (control)): 0.321 ± 0.021 %ID/gram | Biodistribution, cerebellum ([3]; 30 min p.i. (control)): 0.097 ± 0.016 %ID/gram | Biodistribution, fat ([3]; 30 min p.i. (control)): 0.851 ± 0.314 %ID/gram | Biodistribution, heart ([3]; 30 min p.i. (control)): 0.296 ± 0.038 %ID/gram | Biodistribution, kidney ([3]; 30 min p.i. (control)): 1.647 ± 0.459 %ID/gram | Biodistribution, liver ([3]; 30 min p.i. (control)): 7.345 ± 1.472 %ID/gram | Biodistribution, lung ([3]; 30 min p.i. (control)): 0.408 ± 0.083 %ID/gram | Biodistribution, muscle ([3]; 30 min p.i. (control)): 0.244 ± 0.073 %ID/gram | Biodistribution, striatum ([3]; 30 min p.i. (control)): 0.452 ± 0.086 ^a %ID/gram and 0.452 ± 0.086 %ID/gram | Biodistribution, total brain ([3]; 30 min p.i. (control)): 0.133 ± 0.024 %ID/gram | Biodistribution, blood ([3]; 60 min p.i.): 0.275 ± 0.028 %ID/gram | Biodistribution, cerebellum ([3]; 60 min p.i.): 0.064 ± 0.006 %ID/gram | Biodistribution, fat ([3]; 60 min p.i.): 0.500 ± 0.087 %ID/gram | Biodistribution, heart ([3]; 60 min p.i.): 0.199 ± 0.013 %ID/gram | Biodistribution, kidney ([3]; 60 min p.i.): 1.275 ± 0.141 %ID/gram | Biodistribution, liver ([3]; 60 min p.i.): 6.398 ± 0.945 %ID/gram | Biodistribution, lung ([3]; 60 min p.i.): 0.299 ± 0.042 %ID/gram | Biodistribution, muscle ([3]; 60 min p.i.): 0.142 ± 0.014 %ID/gram | Biodistribution, striatum ([3]; 60 min p.i.): 0.380 ± 0.048 ^a %ID/gram | Biodistribution, total brain ([3]; 60 min p.i.): 0.095 ± 0.008 %ID/gram

— PMC4054929 (Bioorganic & medicinal chemistry, 2014)
